Counter-ions that a name gives are not always drawn.
How the values were obtained:
[1] = system: mice having neuropathic pain induced by a spared nerve injury (SNI); details: for analgesic efficacy at the chronic stage of the neuropathic pain / analgesic efficacy at the earlier stage of the neuropathic pain: agonist alone; for analgesic efficacy upon co-administration of CCG 50014 (RGS4 inhibitor): at 14, 28, or even 56 days after SNI, CCG50014 intrathecally 5 minutes before agonist (FIGS. 3 and 4); for analgesic effect of 1 nmol at 14 days after SNI / analgesic effect at 28 days after SNI / analgesic effect at 56 days after SNI / analgesic effect at 14 days after SNI / higher dose needed at 56 days after SNI for analgesic effect similar to that at 14 days after SNI / neuropathic pain induced by SNI (withdrawal threshold): mouse; for analgesic effect of 1 nmol at 14 days after SNI / analgesic effect at 28 days after SNI / analgesic effect at 56 days after SNI / analgesic effect at 14 days after SNI / higher dose needed at 56 days after SNI for analgesic effect similar to that at 14 days after SNI: intrathecal; for analgesic effect of 1 nmol at 14 days after SNI: alone (FIGS. 5 and 6); for analgesic effect at 28 days after SNI / analgesic effect at 56 days after SNI / analgesic effect at 14 days after SNI / higher dose needed at 56 days after SNI for analgesic effect similar to that at 14 days after SNI: alone; for analgesic effect at 14 days after SNI: as doses increased; for higher dose needed at 56 days after SNI for analgesic effect similar to that at 14 days after SNI: relative to 1 nmol at 14 days; for neuropathic pain induced by SNI (withdrawal threshold): single intrathecal injection, agonist alone (FIGS. 1 and 2)
Description: To prepare neuralgia-induced mouse models, mice having a genetic background of 129S4/SvJae×C57BL/6J were used. According to a modification of the method described in the related art, a spared nerve injury (SNI) of sciatic nerve was induced in the mice.
Briefly, the mice were anesthetized with 3% isoflurane in a mixture of N2O/O2 gas. At the right hindlimb, incision was made at a mid-thigh level, and peripheral branches (sural, common peroneal, and tibial nerves) of the sciatic nerve were exposed. Both tibial and common peroneal nerves were tightly ligated with 8.0 silk thread together, and a 1-2 mm section of the two nerves was removed. The sural nerve was carefully preserved by avoiding any nerve stretch or nerve contact with surgical tools. Muscle and skin were closed in two distinct layers with chromic catgut 6.0 and silk 6.0 suture, respectively. During recovery, animals were housed in clear plastic cages with a thick layer of sawdust bedding.
Clonidine (2-[(2,6-dichlorophenyl)amino-2-imidazoleine hydrochloride, alpha2AR agonist) was purchased from Sigma (St. Louis, Mo., USA). CCG50014 was diluted in 12% dimethyl sulfoxide (DMSO) in saline.
Each drug was administered by intrathecal injection based on the technique developed by Hylden and Wilcox. […] drugs were dissolved in 5 μl of vehicle. Briefly, for mouse intrathecal injections, a 30-gauge needle (length: 0.5 inch) connected to a 50 μl Hamilton syringe was inserted into the subarachnoid space between the lumbar vertebrae L5 and L6. A flick of the mouse tail provided a reliable indicator that the needle had penetrated the dura meter. The syringe was held in position for a few seconds after the injection of 5 μl/mouse.
To evaluate a degree of pain alleviation in each of the neuralgic mice, a degree of pain responses to mechanical stimuli was measured by measuring mechanical threshold based on the method described in the related art. In detail, mechanical withdrawal thresholds were determined for all mice at day 0 prior to neuropathic surgery in order to obtain normal baseline values of withdrawal threshold to mechanical stimuli. For 56 days post-SNI surgery, all experimental animals were behaviorally tested to confirm the development of mechanical allodynia. […] The test was performed using an ascending series of von Frey filaments (North Coast Medical, Morgan Hill, Calif.). Mice were placed in an acrylic cylinder (6.5 cm in diameter and 17 cm in height) on an elevated metal mesh grid and allowed to acclimate for 30 minutes before testing. Each monofilament (0.008 g, 0.02 g, 0.07 g, 0.16 g, 0.4 g, and 0.6 g) was applied 6 times in ascending order to the midplantar region of each hind paw of mouse. The monofilament that produced a paw withdrawal, flinch, or lick in 3 of 6 applications was defined as the 50% paw withdrawal threshold. The behavioral investigator was blinded to the treatment of animals during the experiments.
Results of each of the experiments above are expressed as means±SEM unless otherwise stated. Data analysis and statistical comparisons were performed using GraphPad Prism version 5.0 (GraphPad Software, San Diego, Calif.). Comparison between two groups was made using the Student's t-test. For multiple comparisons, ANOVA followed by post hoc Tukey test was performed. Differences with P<0.05 were considered significant.

[2] = cited from earlier work
motion performance = details: mouse
Procedure: To evaluate degradation of motion performance capability as one of side effects caused by the low blood pressure, rotarod test was performed on each of the mice administered with clonidine or the RGS4 inhibitor. […] All mice were tested 24 hours before the actual rotarod test, and mice that were able to remain on the rod for at least 120 seconds were included in the experiment. 30 minutes after clonidine injection, each animal was subsequently tested on the rotarod over 2-minutes period and their performance time on the bar (in seconds) was measured. The test was repeated 3 times and the mean value for each animal was recorded.
(§1) Test results are expressed as means±SEM unless otherwise stated. Data analysis and statistical comparisons were performed using GraphPad Prism version 5.0 (GraphPad Software, San Diego, Calif.). Comparison between two groups was made using the Student's t-test. For multiple comparisons, ANOVA followed by post hoc Tukey test was performed. Differences with P<0.05 were considered significant.

[3] = system: systolic blood pressure (SBP); details: mouse
Procedure: To evaluate the induction of low blood pressure, systolic blood pressure (SBP) was measured using a non-invasive computerized tail-cuff system as previously described in the art (PowerLab system, ADI Instrument Pry Ltd., Chain Hills, NSW, Australia). Briefly, animals were acclimated for 30 minutes in a quiet test room prior to obtaining cardiovascular measurements. At the end of the 1 hour period, the SBP was measured. This experiment was repeated 3 times and the mean value for each animal was recorded. […] All cardiovascular measurements were obtained between 1 pm to 3 pm in order to avoid changes due to normal circadian rhythms.
as §1

## Cc1cccc([C@H](C)c2c[nH]cn2)c1C.Cl [dexmedetomidine, 4-[(1S)-1-(2,3-dimethylphenyl)ethyl]-1H-imidazole hydrochloride]
[1]; mouse SNI
  analgesic efficacy at the chronic stage of the neuropathic pain: lost the analgesic efficacy
  analgesic efficacy at the earlier stage of the neuropathic pain: exhibited the analgesic efficacy
  analgesic efficacy upon co-administration of CCG 50014 (RGS4 inhibitor): maintained
[1]
  analgesic effect of 1 nmol at 14 days after SNI: significant analgesic effect
  analgesic effect at 28 days after SNI: decreased
  analgesic effect at 56 days after SNI: completely disappeared
  analgesic effect at 14 days after SNI: potent analgesic effect
  higher dose needed at 56 days after SNI for analgesic effect similar to that at 14 days after SNI: 3 fold
  neuropathic pain induced by SNI (withdrawal threshold): alleviated

## Clc1cccc(Cl)c1N=C1NCCN1 [clonidine, 2-[(2,6-dichlorophenyl)amino-2-imidazoleine hydrochloride]
[1]; mouse SNI, 56th day after SNI, dynasore intrathecally 5 minutes before clonidine (FIG. 9)
  analgesic efficacy upon co-administration of dynasore: restored
[1]; mouse SNI
  analgesic efficacy at the chronic stage of the neuropathic pain: lost the analgesic efficacy
  analgesic efficacy at the earlier stage of the neuropathic pain: exhibited the analgesic efficacy
  analgesic efficacy upon co-administration of CCG 50014 (RGS4 inhibitor): maintained
[1]
  analgesic effect of 1 nmol at 14 days after SNI: significant analgesic effect
  analgesic effect at 28 days after SNI: decreased
  analgesic effect at 56 days after SNI: completely disappeared
  analgesic effect at 14 days after SNI: potent analgesic effect
  higher dose needed at 56 days after SNI for analgesic effect similar to that at 14 days after SNI: 10 fold
  neuropathic pain induced by SNI (withdrawal threshold): alleviated
[2]; healthy adult male, concentration gradient from about 150 μg to about 450 μg
  side effect: no side effect
[2]; human, 1 μg/kg intravenously with lidocaine
  side effects: no statistically significant side effects
[2]; human, 5 μg/kg orally
  harmful side effect: no harmful side effect
Motion performance; 1 nmol in combination with the RGS4 inhibitor (FIG. 8)
  decreased motor performance side effect: no side effects
Motion performance; clonidine 10 nmol alone, 30 minutes after injection (FIG. 8)
  motor performance (rotarod): rapidly decreased motor performance
[3]; 1 nmol in combination with the RGS4 inhibitor (FIG. 7)
  low blood pressure side effect: no side effects
[3]; clonidine 10 nmol alone (effective dose), 30 minutes after treatment (FIG. 7)
  blood pressure (SBP) change: significant symptoms of low blood pressure

— patent US10555932B2, “Method of restoring analgesic efficacy of alpha2-adrenoceptor agonists in neuropathic pain treatment” (KOREA INSTITUTE OF SCIENCE AND TECHNOLOGY, priority 2016, dated 2020)
